One experiment concerns NCI-H1299. Description: MTS assay, NCI-H1299 cells. In kind it is cell-based. The following applies: Homo sapiens, 72 hours. An outline of the steps: (§1)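 First, seed 3000 cells per well in low-serum (1% FBS) DMEM and culture 18 h. Next, add compounds prepared at 300× in DMSO and diluted 1:40 in DMEM; incubate 72 h. Finally, add MTS/PMS for 4 h and measure absorbance at 492 nm.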

In the next experiment the target is ABL T315I (Homo sapiens, UniProt P00519, T315I). The experiment can be described thus: ABL Kinase Activity Assay (Elisa), ABL T315I. In kind it is biochemical. As to conditions: ATP 100 μM, read-out: Abl(T315I) Enzymetic assay (Elisa) % inhibition. An outline of the steps: (§2)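 Recombinant ABL or ABL T315I (0.089 nM final) preincubated 20 min with compound, then reacted 1 h at room temperature with 100 μM ATP and 128 nM biotinylated AblTide in Tris pH 7.0/MgCl2 buffer. Phosphopeptide captured on streptavidin and detected by anti-phosphotyrosine ELISA with alkaline phosphatase secondary and Attophos fluorescence.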

Another experiment deals with DLD-1. Description: MTS assay, DLD-1 cells. The class given is cell-based. As to conditions: Homo sapiens, 72 hours. The essentials: as §1
In the next experiment the test system is KATO III. The experiment can be described thus: MTS assay, KATO III cells. The following applies: Homo sapiens, 72 hours. In kind it is cell-based. An outline of the steps: as §1
The test system of a further experiment is PACA-2. The experiment can be described thus: MTS assay, PACA-2 cells. In kind it is cell-based. As to conditions: 72 hours. The essentials: as §1
In another experiment the test system is MDA-MB-231. Description: MTS assay, MDA-MB-231 cells. The class given is cell-based. The following applies: Homo sapiens, 72 hours. The essentials: as §1
The target of another experiment is ABL (Homo sapiens, UniProt P00519). The experiment can be described thus: ABL Kinase Activity Assay (Elisa), ABL. The class given is biochemical. As to conditions: ATP 100 μM, read-out: Abl Enzymetic assay (Elisa) % inhibition. An outline of the steps:
as §2

The subject of another experiment is PC-3. The experiment can be described thus: MTS assay, PC-3 cells. In kind it is cell-based. As to conditions: Homo sapiens, 72 hours. The procedure:
Cells were maintained at 37° C., 5% CO2 in DMEM media supplemented with 1% fetal bovine serum, penicillin/streptomycin and fungizone (Invitrogen). Cells were seeded into 96-well tissue culture plates at 3000 per well and cultured at 37° C. for 18 hours. Test compounds were dissolved and diluted to 300× in DMSO then diluted 1:40 in DMEM. Cells were incubated with test compounds for 72 hours followed by incubation with tetrazolium compound (3-(4,5-dimethylthiazol-2-yl)-5-(3-carboxymethoxyphenyl)-2-(4-sulfophenyl)-2H-tetrazolium, inner salt; MTS) and the electron coupling reagent, phenazine methosulfate (PMS) for 4 hours. […] The ability of compounds to inhibit cell growth in this assay is correlated with the reduction of dehydrogenase enzyme activity found in metabolically active cells. The measurement of the absorbance of the formazan was assessed using an ENVISION™ (Perkin Elmer) microplate reader at 492 nm. The calculated IC50 value is the concentration of the test compound that causes a 50% decrease in the absorbance.

SMILES strings stand for the structures.

On to `CCCCNc1ncc2c(n1)-c1cccnc1Nc1cnccc1-2` [Example 7, N-butyl-9H-dipyrido[2,3-b:4′,3′-f]pyrimido[4,5-d]azepin-2-amine], for which the inhibition at 10 µM in the experiment with NCI-H1299 is less than 50%; on ABL T315I it was 80 to 100%; in the experiment with DLD-1 it was less than 50%; with KATO III, 50 to 79%; in the experiment on PACA-2 it was less than 50%; with MDA-MB-231, 50 to 79%. Also, the values for the inhibition at 10 µM on ABL and with PC-3 were 80 to 100% and less than 50%, respectively.
In the case of `Clc1ccccc1CNc1ncc2c(n1)-c1cccnc1Nc1cnccc1-2` [Example 8, N-(2-chlorobenzyl)-9H-dipyrido[2,3-b:4′,3′-f]pyrimido[4,5-d]azepin-2-amine], the inhibition at 10 µM with NCI-H1299, at ABL T315I, in the experiment on DLD-1, in the experiment on KATO III, in the experiment with PACA-2 and with MDA-MB-231 was 80 to 100% each time. The inhibition at 10 µM on ABL is 50 to 79%; with PC-3, 80 to 100%.
With `Fc1ccc(CNc2ncc3c(n2)-c2cccnc2Nc2cnccc2-3)cc1` [Example 11, N-(4-fluorobenzyl)-9H-dipyrido[2,3-b:4′,3′-f]pyrimido[4,5-d]azepin-2-amine], the inhibition at 10 µM in the experiment with NCI-H1299, on ABL T315I, in the experiment on DLD-1, in the experiment with KATO III, in the experiment with PACA-2 and in the experiment on MDA-MB-231 was 80 to 100% throughout. The inhibition at 10 µM at ABL and in the experiment with PC-3 was 80 to 100% throughout.
Consider `Clc1ccc(CNc2ncc3c(n2)-c2cccnc2Nc2cnccc2-3)cc1` [Example 13, N-(4-chlorobenzyl)-9H-dipyrido[2,3-b:4′,3′-f]pyrimido[4,5-d]azepin-2-amine], for which the inhibition at 10 µM with NCI-H1299 is 50 to 79%; on ABL T315I, 80 to 100%; in the experiment on DLD-1, 50 to 79%; in the experiment on KATO III it was 50 to 79%; in the experiment with PACA-2, less than 50%; with MDA-MB-231 it was less than 50%. The inhibition at 10 µM at ABL was 50 to 79%; in the experiment on PC-3 it was less than 50%.
In the case of `COc1ccc(CCNc2ncc3c(n2)-c2cccnc2Nc2cnccc2-3)cc1OC` [Example 14, N-[2-(3,4-dimethoxyphenyl)ethyl]-9H-dipyrido[2,3-b:4′,3′-f]pyrimido[4,5-d]azepin-2-amine], the inhibition at 10 µM is less than 50% in the experiment on NCI-H1299; 80 to 100% at ABL T315I; less than 50% in the experiment with DLD-1; less than 50% in the experiment with KATO III; less than 50% with PACA-2; less than 50% in the experiment with MDA-MB-231. Moreover, the inhibition at 10 µM is 80 to 100% on ABL and less than 50% in the experiment on PC-3.
As to `Cc1ccccc1CCNc1ncc2c(n1)-c1cccnc1Nc1cnccc1-2` [Example 15, N-[2-(2-methylphenyl)ethyl]-9H-dipyrido[2,3-b:4′,3′-f]pyrimido[4,5-d]azepin-2-amine], the inhibition at 10 µM in the experiment with NCI-H1299 was less than 50%; on ABL T315I, 80 to 100%; with DLD-1, less than 50%; in the experiment with KATO III it was 50 to 79%; with PACA-2, less than 50%; in the experiment on MDA-MB-231, less than 50%. Besides, the inhibition at 10 µM at ABL was 80 to 100%; with PC-3, less than 50%.
As for `FC(F)(F)c1ccc(CNc2ncc3c(n2)-c2cccnc2Nc2cnccc2-3)cc1` [Example 21, N-[4-(trifluoromethyl)benzyl]-9H-dipyrido[2,3-b:4′,3′-f]pyrimido[4,5-d]azepin-2-amine], the inhibition at 10 µM was 80 to 100% in the experiment with NCI-H1299; less than 50% at ABL T315I; 80 to 100% in the experiment on DLD-1; 80 to 100% in the experiment on KATO III; 80 to 100% in the experiment with PACA-2; 80 to 100% with MDA-MB-231. Also, the values for the inhibition at 10 µM on ABL and in the experiment with PC-3 were less than 50% and 80 to 100%, respectively.
For the compound `COc1ccccc1CNc1ncc2c(n1)-c1cccnc1Nc1cnccc1-2` [Example 22, N-(2-methoxybenzyl)-9H-dipyrido[2,3-b:4′,3′-f]pyrimido[4,5-d]azepin-2-amine], the inhibition at 10 µM is 50 to 79% with NCI-H1299; less than 50% at ABL T315I; 50 to 79% in the experiment with DLD-1; less than 50% in the experiment with KATO III; less than 50% in the experiment on PACA-2; 80 to 100% in the experiment with MDA-MB-231. For the same compound, the inhibition at 10 µM is less than 50% on ABL and 50 to 79% in the experiment with PC-3.
On to `CCCN1CCC(Nc2ncc3c(n2)-c2cccnc2Nc2cnccc2-3)CC1` [Example 23, N-(1-propylpiperidin-4-yl)-9H-dipyrido[2,3-b:4′,3′-f]pyrimido[4,5-d]azepin-2-amine], for which the inhibition at 10 µM in the experiment with NCI-H1299 is 80 to 100%; on ABL T315I, less than 50%; in the experiment with DLD-1, 80 to 100%; in the experiment with KATO III, 80 to 100%; with PACA-2, 80 to 100%; with MDA-MB-231, 80 to 100%. In addition, the inhibition at 10 µM was in the range of 50 to 79% on ABL and 80 to 100% in the experiment with PC-3.
Take `COc1cccc(CCNc2ncc3c(n2)-c2cccnc2Nc2cnccc2-3)c1` [Example 24, N-[2-(3-methoxyphenyl)ethyl]-9H-dipyrido[2,3-b:4′,3′-f]pyrimido[4,5-d]azepin-2-amine]: the inhibition at 10 µM was less than 50% in the experiment on NCI-H1299; 80 to 100% at ABL T315I; less than 50% with DLD-1; 50 to 79% with KATO III; less than 50% in the experiment with PACA-2; less than 50% with MDA-MB-231. The values for the inhibition at 10 µM on ABL and with PC-3 were 80 to 100% and less than 50%, respectively.
`Fc1cccc(CCNc2ncc3c(n2)-c2cccnc2Nc2cnccc2-3)c1` [Example 25, N-[2-(3-fluorophenyl)ethyl]-9H-dipyrido[2,3-b:4′,3′-f]pyrimido[4,5-d]azepin-2-amine]: the inhibition at 10 µM in the experiment with NCI-H1299, at ABL T315I, in the experiment on DLD-1, in the experiment on KATO III, with PACA-2 and with MDA-MB-231 was 80 to 100% in each case. The inhibition at 10 µM lay within 50 to 79% at ABL and 80 to 100% with PC-3.
Turning to `c1ccc(OCCNc2ncc3c(n2)-c2cccnc2Nc2cnccc2-3)cc1` [Example 26, N-(2-phenoxyethyl)-9H-dipyrido[2,3-b:4′,3′-f]pyrimido[4,5-d]azepin-2-amine], the inhibition at 10 µM was less than 50% with NCI-H1299; 80 to 100% at ABL T315I; less than 50% with DLD-1; 50 to 79% with KATO III; less than 50% with PACA-2; less than 50% in the experiment on MDA-MB-231. The inhibition at 10 µM at ABL is 80 to 100%; with PC-3, less than 50%.
Regarding `O[C@H]1CC[C@H](Nc2ncc3c(n2)-c2cccnc2Nc2cnccc2-3)CC1` [Example 27, trans-4-(9H-dipyrido[2,3-b:4′,3′-f]pyrimido[4,5-d]azepin-2-ylamino)cyclohexanol], the inhibition at 10 µM with NCI-H1299 is less than 50%; at ABL T315I it was 80 to 100%; in the experiment with DLD-1 it was less than 50%; in the experiment on KATO III, 80 to 100%; in the experiment on PACA-2 it was less than 50%; with MDA-MB-231, 50 to 79%. The inhibition at 10 µM at ABL lay in the range of 80 to 100%; in the experiment on PC-3 it was 50 to 79%.
Regarding `Fc1ccc(CNc2ncc3c(n2)-c2cccnc2Nc2cnccc2-3)cc1F` [Example 33, N-(3,4-difluorobenzyl)-9H-dipyrido[2,3-b:4′,3′-f]pyrimido[4,5-d]azepin-2-amine], the inhibition at 10 µM in the experiment on NCI-H1299, at ABL T315I, with DLD-1, in the experiment on KATO III, in the experiment with PACA-2 and in the experiment on MDA-MB-231 was 80 to 100% in each case. The inhibition at 10 µM on ABL and in the experiment on PC-3 was 80 to 100% throughout.
With `c1ccc(-c2ccc(CNc3ncc4c(n3)-c3cccnc3Nc3cnccc3-4)cc2)cc1` [Example 34, N-(biphenyl-4-ylmethyl)-9H-dipyrido[2,3-b:4′,3′-f]pyrimido[4,5-d]azepin-2-amine], the inhibition at 10 µM with NCI-H1299, at ABL T315I, in the experiment on DLD-1, with KATO III, in the experiment with PACA-2 and in the experiment on MDA-MB-231 was 80 to 100% throughout. Also, the inhibition at 10 µM at ABL and in the experiment on PC-3 was 80 to 100% in each case.

The values above are taken from US8349827B2, “Substituted dipyrido-pyrimido-diazepine and benzo-pyrido-pyrimido compounds” (ArQule, Inc., priority 2009, dated 2013).
